Test results published in patent publication US20060069132A1, “Azolecarboxamide herbicides” (priority 2004, published 2006).

Experiments:
[1] = system: giant foxtail; assay: Test C pre-/postemergence herbicide test; type: in vivo, Setaria faberi; conditions: for Plant response rating (0 = no effect, 100 = complete control), Foxtail, Giant: 62 g ai/ha; for Plant response rating (0 = no effect, 100 = complete control), Foxtail, Giant / Plant response rating, Foxtail, Giant: preemergence; for Foxtail, Giant plant response rating: Preemergence, 500 g ai/ha, scale 0 to 100, 0 no effect, 100 complete control
Procedure, shortened: (§1)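 Visual injury scores run from 0 (no effect) to 100 (complete control), assessed relative to untreated controls 12 to 14 days after treatment in the greenhouse. Chemicals were formulated in a non-phytotoxic solvent mixture with surfactant and applied to soil after planting or to emerged plants at the 1- to 4-leaf stage.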

[2] = system: corn; assay: Test C pre-/postemergence herbicide test; type: in vivo, Zea mays; conditions: for Plant response rating (0 = no effect, 100 = complete control), Corn: 62 g ai/ha; for Plant response rating (0 = no effect, 100 = complete control), Corn / Plant response rating, Corn: preemergence; for Corn plant response rating: Preemergence, 500 g ai/ha, scale 0 to 100, 0 no effect, 100 complete control
Procedure, shortened: as §1

[3] = system: ducksalad; assay: Test B flooded paddy test; type: in vivo, Heteranthera limosa; conditions: 1000 g ai/ha, visual rating, scale 0 to 100 (0 no effect, 100 complete control), 13 to 15 days
Procedure, shortened: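 Paddy species grown to the 2-leaf stage under flooding; blackgrass sprayed postemergence at 2–18 cm (1- to 4-leaf stage). Plants kept in a greenhouse for 13 to 15 days, then visually rated against controls on 0 (no effect) to 100 (complete control).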

[4] = system: kochia; assay: Test C pre-/postemergence herbicide test; type: in vivo, Kochia scoparia; conditions: for Plant response rating (0 = no effect, 100 = complete control), Kochia: 62 g ai/ha; for Plant response rating (0 = no effect, 100 = complete control), Kochia / Plant response rating, Kochia: preemergence; for Kochia plant response rating: Preemergence, 500 g ai/ha, scale 0 to 100, 0 no effect, 100 complete control
Procedure, shortened: as §1

[5] = system: corn; assay: Test B pre-/postemergence herbicide test; type: in vivo, Zea mays
Procedure, shortened: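 Response was scored visually 13 to 15 days after treatment against untreated greenhouse controls, 0 meaning no effect and 100 complete control. Formulations (solvent mixture plus surfactant) went onto soil after planting, onto foliage of 1- to 4-leaf plants, and onto 2-leaf plants in a flooded paddy set including rice and barnyardgrass.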

[6] = system: velvetleaf; assay: Test C pre-/postemergence herbicide test; type: in vivo, Abutilon theophrasti; conditions: for Plant response rating, Velvetleaf: preemergence; for Velvetleaf plant response rating: Preemergence, 500 g ai/ha, scale 0 to 100, 0 no effect, 100 complete control
Procedure, shortened: as §1

[7] = system: velvetleaf; assay: Test A pre-/postemergence herbicide test; type: in vivo, Abutilon theophrasti; conditions: for Plant response rating, Velvetleaf: Postemergence, 0 to 100 scale, 0 no effect, 100 complete control; for Velvetleaf plant response rating: Preemergence, visual rating, 0 to 100 scale (0 no effect, 100 complete control)
Procedure, shortened: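 Pre: seeded sandy loam, directed soil spray, compound in non-phytotoxic solvent + surfactant. Post: 1–2-leaf plants (2–10 cm), sprayed to runoff. Greenhouse ~10 d; visual injury vs untreated, 0–100 scale.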

[8] = system: cocklebur; assay: Test C pre-/postemergence herbicide test; type: in vivo, Xanthium strumarium; conditions: for Plant response rating (0 = no effect, 100 = complete control), Cocklebur: 62 g ai/ha; for Plant response rating (0 = no effect, 100 = complete control), Cocklebur / Plant response rating, Cocklebur: preemergence; for Cocklebur plant response rating: Preemergence, 500 g ai/ha, scale 0 to 100, 0 no effect, 100 complete control
Procedure, shortened: as §1

[9] = 125 g ai/ha, scale 0 (no effect) to 100 (complete control), visual, 12 to 14 days
[10] = 250 g ai/ha, scale 0 to 100 (0 no effect, 100 complete control), visual, 12 to 14 days
[11] = Postemergence, 500 g ai/ha, visual rating after 13 to 15 days, scale 0 (no effect) to 100 (complete control)
[12] = Preemergence, 500 g ai/ha, scale 0 to 100
[13] = postemergence, 125 g ai/ha, visual rating, scale 0 (no effect) to 100 (complete control)
[14] = preemergence, 125 g ai/ha, 0 to 100 scale, 0 is no effect, 100 is complete control

SMILES | Plant response rating (0 = no effect, 100 = complete control), Foxtail, Giant [1] | Plant response rating, Foxtail, Giant [1, 9] | Plant response rating, Foxtail, Giant [1, 10] | Plant response rating (0 = no effect, 100 = complete control), Corn [2] | Plant response rating, Corn [2, 9] | Plant response rating, Corn [2, 10] | Ducksalad plant response rating [3] | Plant response rating (0 = no effect, 100 = complete control), Kochia [4] | Plant response rating, Kochia [4, 9] | Plant response rating, Kochia [4, 10] | Plant response rating, Corn [5, 11] | Corn plant response rating [5, 12] | Corn plant response rating [5, 13] | Plant response rating, Corn [5, 14] | Plant response rating, Velvetleaf [6, 10] | Plant response rating, Velvetleaf ([7]; 2000 g ai/ha) | Velvetleaf plant response rating ([7]; 500 g ai/ha) | Velvetleaf plant response rating ([7]; 2000 g ai/ha) | Plant response rating (0 = no effect, 100 = complete control), Cocklebur [8] | Plant response rating, Cocklebur [8, 9] | also measured
CCn1nc(C(C)(C)C)cc1C(=O)Nc1cccc(C(=O)NCC(C)C)c1 [Compound 61] | 0 | 20 | 40 | 0 | 0 | 0 | 80 | 10 | 100 | 100 | 40 | 10 | 20 | 0 | 80 | 15 | 55 | 85 | 0 | 0 | Foxtail, Giant plant response rating [1]: 60; Corn plant response rating [2]: 0; Kochia plant response rating [4]: 100; Plant response rating, Velvetleaf [6, 9]: 45; Velvetleaf plant response rating [6]: 100; Cocklebur plant response rating [8]: 0
CCn1nc(C(C)(C)C)cc1C(=O)Nc1cccc(C(=O)NCC2CC2)c1 [Compound 62] | 15 | 65 | 85 | 0 | 0 | 0 | 80 | 100 | 100 | 100 | 20 | 10 | 10 | 0 | 70 | 20 | 70 | 95 | 0 | 0 | Plant response rating, Foxtail, Giant ([1]; 31 g ai/ha, scale 0 to 100): 5; Plant response rating, Corn ([2]; 31 g ai/ha, scale 0 to 100): 0; Plant response rating, Kochia ([4]; 31 g ai/ha, scale 0 to 100): 100; Plant response rating, Velvetleaf ([6]; 31 g ai/ha, scale 0 to 100): 0; Plant response rating, Cocklebur ([8]; 31 g ai/ha, scale 0 to 100): 0; Plant response rating, Cocklebur [8, 10]: 0
CCN1CCc2c(NC(=O)c3cc(C(C)(C)C)nn3CC)cccc2C1=O [Compound 63] | 0 | 5 | 10 | 0 | 0 | 5 | 90 | 30 | 80 | 90 | 20 | 30 | 20 | 0 | 30 | 55 | 20 | 70 | 0 | 0 | Foxtail, Giant plant response rating [1]: 80; Corn plant response rating [2]: 30; Kochia plant response rating [4]: 90; Plant response rating, Velvetleaf [6, 9]: 10; Velvetleaf plant response rating [6]: 100; Plant response rating, Cocklebur [8, 10]: 0; Cocklebur plant response rating [8]: 0
